ChEMBL document CHEMBL4382200, “Discovery of Novel 7-Aryl 7-Deazapurine 3'-Deoxy-ribofuranosyl Nucleosides with Potent Activity against Trypanosoma cruzi” (J Med Chem, 2018)
The source made the active and inactive calls. The rule behind the calls is not given here.

Experiments:
[1] = Cytotoxicity against human MRC5 SV2 cells assessed as reduction in cell viability after 3 days resazurin-based fluorimetric assay; settings: MRC-5 SV2, 72 h
Trypanosoma cruzi [2] = experiment: Antiparasitic activity against Trypanosoma cruzi Tulahuen CL2 intracellular amastigotes expressing beta-galactosidase infected in human MRC5 SV2 cells after 7 days by chlorophenol red beta-D-galactopyranoside-based spectrophotometric analysis; assay type: functional, organism-based; settings: Tulahuen CL2, MRC-5 SV2, 168 h
[3] = Therapeutic index, ratio EC50 for human MRC5 SV2 cells to EC50 for Trypanosoma cruzi Tulahuen CL2 intracellular amastigotes; assay type: toxicity, cell-based; settings: read-out: Ratio EC50
[4] = Cytotoxicity against Swiss mouse embryonic cardiomyocytes assessed as reduction in cell viability after 24 hrs by prestoblue-staining based colorimetry; settings: Cardiac muscle cell
Trypanosoma cruzi [5] = experiment: Antiparasitic activity against Trypanosoma cruzi Y strain bloodstream trypomastigotes infected in Swiss Webster mouse at 100 mg/kg, po sid via gavage administered for 5 consecutive days starting from day 5 post infection followed by cyclophosphamide-induced immunosuppression on day 40 post infection for 4 consecutive days; assay type: functional, organism-based
Trypanosoma cruzi [6] = experiment: (§1) Antiparasitic activity against Trypanosoma cruzi Y strain bloodstream trypomastigotes infected in Swiss Webster mouse assessed as protection against parasite-induced mortality at 25 mg/kg, po bid via gavage administered for 5 consecutive days starting from day 5 post infection measured at day 15 post infection; assay type: functional, organism-based
Trypanosoma cruzi [7] = experiment: Trypanocidal activity against Trypanosoma cruzi Y strain intracellular amastigotes infected in mouse cardiac cells assessed as parasite death after 168 hrs by Giemsa-staining based assay; assay type: functional, organism-based
Trypanosoma cruzi [8] = experiment: Antiparasitic activity against Trypanosoma cruzi Y strain bloodstream trypomastigotes infected in Swiss Webster mouse assessed as decrease in parasitemia at 100 mg/kg, po sid via gavage administered for 5 consecutive days measured at day 8 post infection by direct microscopic counting; assay type: functional, organism-based
Trypanosoma cruzi [9] = experiment: Trypanocidal activity against Trypanosoma cruzi Y strain bloodstream trypomastigotes isolated from infected Swiss mouse […] assessed as parasite death after 24 hrs by neubauer chamber based light microscopy; assay type: functional, organism-based
Trypanosoma cruzi [10] = experiment: as §1, with “100” for “25”, “sid” for “bid”; assay type: functional, organism-based
[11] = Drug metabolism in rat liver microsome S9 fraction assessed as UGT-mediated metabolism by measuring compound remaining at 5 uM pretreated with UDPGA and measured after 30 mins by UPLC-MS/MS analysis; assay type: ADME, microsomes; settings: microsomes, 0.5 h, 5 µM
[12] = Drug metabolism in rat liver microsome S9 fraction assessed as UGT-mediated metabolism by measuring compound remaining at 5 uM pretreated with UDPGA and measured after 15 mins by UPLC-MS/MS analysis; assay type: ADME, microsomes; settings: microsomes, 0.25 h, 5 µM
[13] = Drug metabolism in mouse liver microsome S9 fraction assessed as UGT-mediated metabolism by measuring compound remaining at 5 uM pretreated with UDPGA and measured after 30 mins by UPLC-MS/MS analysis; assay type: ADME, microsomes; settings: microsomes, 0.5 h, 5 µM
[14] = Drug metabolism in mouse liver microsome S9 fraction assessed as CYP450-mediated metabolism by measuring compound remaining at 5 uM pretreated with NADPH and measured after 15 mins by UPLC-MS/MS analysis; assay type: ADME, microsomes; settings: microsomes, 0.25 h, 5 µM
[15] = Drug metabolism in rat liver microsome S9 fraction assessed as CYP450-mediated metabolism by measuring compound remaining at 5 uM pretreated with NADPH and measured after 30 mins by UPLC-MS/MS analysis; assay type: ADME, microsomes; settings: microsomes, 0.5 h, 5 µM
[16] = Drug metabolism in mouse liver microsome S9 fraction assessed as UGT-mediated metabolism by measuring compound remaining at 5 uM pretreated with UDPGA and measured after 60 mins by UPLC-MS/MS analysis; assay type: ADME, microsomes; settings: microsomes, 1 h, 5 µM
[17] = Drug metabolism in rat liver microsome S9 fraction assessed as UGT-mediated metabolism by measuring compound remaining at 5 uM pretreated with UDPGA and measured after 60 mins by UPLC-MS/MS analysis; assay type: ADME, microsomes; settings: microsomes, 1 h, 5 µM
[18] = Drug metabolism in mouse liver microsome S9 fraction assessed as CYP450-mediated metabolism by measuring compound remaining at 5 uM pretreated with NADPH and measured after 30 mins by UPLC-MS/MS analysis; assay type: ADME, microsomes; settings: microsomes, 0.5 h, 5 µM
[19] = tested on: UDP-glucuronosyltransferases (UGTs); experiment: Drug metabolism in human liver microsome S9 fraction assessed as UGT-mediated metabolism by measuring compound remaining at 5 uM pretreated with UDPGA and measured after 60 mins by UPLC-MS/MS analysis; assay type: ADME, microsomes; settings: microsomes, 1 h, 5 µM
Cytochrome P450 [20] = experiment: Drug metabolism in human liver microsome S9 fraction assessed as CYP450-mediated metabolism by measuring compound remaining at 5 uM pretreated with NADPH and measured after 15 mins by UPLC-MS/MS analysis; assay type: ADME, microsomes; settings: microsomes, 0.25 h, 5 µM
[21] = Drug metabolism in dog liver microsome S9 fraction assessed as CYP450-mediated metabolism by measuring compound remaining at 5 uM pretreated with NADPH and measured after 60 mins by UPLC-MS/MS analysis; assay type: ADME, microsomes, Canis lupus familiaris; settings: microsomes, 1 h, 5 µM
[22] = tested on: UDP-glucuronosyltransferases (UGTs); experiment: Drug metabolism in human liver microsome S9 fraction assessed as UGT-mediated metabolism by measuring compound remaining at 5 uM pretreated with UDPGA and measured after 30 mins by UPLC-MS/MS analysis; assay type: ADME, microsomes; settings: microsomes, 0.5 h, 5 µM
[23] = Drug metabolism in rat liver microsome S9 fraction assessed as CYP450-mediated metabolism by measuring compound remaining at 5 uM pretreated with NADPH and measured after 60 mins by UPLC-MS/MS analysis; assay type: ADME, microsomes; settings: microsomes, 1 h, 5 µM
[24] = Drug metabolism in rat liver microsome S9 fraction assessed as CYP450-mediated metabolism by measuring compound remaining at 5 uM pretreated with NADPH and measured after 15 mins by UPLC-MS/MS analysis; assay type: ADME, microsomes; settings: microsomes, 0.25 h, 5 µM
Cytochrome P450 [25] = experiment: Drug metabolism in human liver microsome S9 fraction assessed as CYP450-mediated metabolism by measuring compound remaining at 5 uM pretreated with NADPH and measured after 30 mins by UPLC-MS/MS analysis; assay type: ADME, microsomes; settings: microsomes, 0.5 h, 5 µM
[26] = Drug metabolism in mouse liver microsome S9 fraction assessed as CYP450-mediated metabolism by measuring compound remaining at 5 uM pretreated with NADPH and measured after 60 mins by UPLC-MS/MS analysis; assay type: ADME, microsomes; settings: microsomes, 1 h, 5 µM
[27] = tested on: UDP-glucuronosyltransferases (UGTs); experiment: Drug metabolism in human liver microsome S9 fraction assessed as UGT-mediated metabolism by measuring compound remaining at 5 uM pretreated with UDPGA and measured after 15 mins by UPLC-MS/MS analysis; assay type: ADME, microsomes; settings: microsomes, 0.25 h, 5 µM
[28] = Drug metabolism in dog liver microsome S9 fraction assessed as UGT-mediated metabolism by measuring compound remaining at 5 uM pretreated with UDPGA and measured after 15 mins by UPLC-MS/MS analysis; assay type: ADME, microsomes, Canis lupus familiaris; settings: microsomes, 0.25 h, 5 µM
[29] = Drug metabolism in mouse liver microsome S9 fraction assessed as UGT-mediated metabolism by measuring compound remaining at 5 uM pretreated with UDPGA and measured after 15 mins by UPLC-MS/MS analysis; assay type: ADME, microsomes; settings: microsomes, 0.25 h, 5 µM
[30] = Drug metabolism in dog liver microsome S9 fraction assessed as CYP450-mediated metabolism by measuring compound remaining at 5 uM pretreated with NADPH and measured after 30 mins by UPLC-MS/MS analysis; assay type: ADME, microsomes, Canis lupus familiaris; settings: microsomes, 0.5 h, 5 µM
[31] = Drug metabolism in dog liver microsome S9 fraction assessed as UGT-mediated metabolism by measuring compound remaining at 5 uM pretreated with UDPGA and measured after 30 mins by UPLC-MS/MS analysis; assay type: ADME, microsomes, Canis lupus familiaris; settings: microsomes, 0.5 h, 5 µM
Cytochrome P450 [32] = experiment: Drug metabolism in human liver microsome S9 fraction assessed as CYP450-mediated metabolism by measuring compound remaining at 5 uM pretreated with NADPH and measured after 60 mins by UPLC-MS/MS analysis; assay type: ADME, microsomes; settings: microsomes, 1 h, 5 µM
[33] = Drug metabolism in dog liver microsome S9 fraction assessed as CYP450-mediated metabolism by measuring compound remaining at 5 uM pretreated with NADPH and measured after 15 mins by UPLC-MS/MS analysis; assay type: ADME, microsomes, Canis lupus familiaris; settings: microsomes, 0.25 h, 5 µM
[34] = Drug metabolism in dog liver microsome S9 fraction assessed as UGT-mediated metabolism by measuring compound remaining at 5 uM pretreated with UDPGA and measured after 60 mins by UPLC-MS/MS analysis; assay type: ADME, microsomes, Canis lupus familiaris; settings: microsomes, 1 h, 5 µM

`Nc1ncnc2c1c(-c1ccc(Cl)c(Cl)c1)cn2[C@@H]1O[C@H](CO)C[C@H]1O` gave an EC50 [1] of 13.6 µM, an EC50 (Trypanosoma cruzi [2]; read-out: EC50) of 0.059 µM and a selectivity ratio [3] of 230.

`Nc1ncnc2c1c(-c1ccc(C(F)(F)F)cc1)cn2[C@@H]1O[C@H](CO)C[C@H]1O` showed an EC50 [1] of 40 µM, an EC50 (Trypanosoma cruzi [2]; read-out: EC50) of 0.53 µM and a selectivity ratio [3] of 76.

In the case of `O=C(Cn1ccnc1[N+](=O)[O-])NCc1ccccc1` [BENZNIDAZOLE], the EC50 [4] is reported as greater than 400 µM, the Activity (Trypanosoma cruzi [5]) is reported as “inactive” and the Activity (Trypanosoma cruzi [6]) is reported as “Active”. The EC50 (Trypanosoma cruzi [7]) was 0.354 µM, the Activity (Trypanosoma cruzi [8]) was “Active” and the EC50 (Trypanosoma cruzi [9]) was 11.5 µM. The Activity (Trypanosoma cruzi [10]) was “Active” and the EC50 (Trypanosoma cruzi [2]) was 2.28 µM.

In the case of `Nc1ncnc2c1c(-c1cccc(Cl)c1)cn2[C@@H]1O[C@H](CO)C[C@H]1O`, the EC50 [1] is reported as 36.1 µM, the EC50 (Trypanosoma cruzi [2]; read-out: EC50) is reported as 0.97 µM and the selectivity ratio [3] is reported as 37.

`Cc1cc(-c2cn([C@@H]3O[C@H](CO)C[C@H]3O)c3ncnc(N)c23)ccc1Cl` gave an EC50 [1] of 16.7 µM, an EC50 (Trypanosoma cruzi [2]; read-out: EC50) of 0.21 µM and a selectivity ratio [3] of 80.

Work on `Nc1ncnc2c1c(-c1cccc(C(F)(F)F)c1)cn2[C@@H]1O[C@H](CO)C[C@H]1O` yielded an EC50 [1] of 49.6 µM, an EC50 (Trypanosoma cruzi [2]; read-out: EC50) of 11.2 µM and a selectivity ratio [3] of 4.4.

For `Nc1ncnc2c1c(-c1ccc(OC(F)(F)F)cc1)cn2[C@@H]1O[C@H](CO)C[C@H]1O`, the EC50 [1] was 40.4 µM, the EC50 (Trypanosoma cruzi [2]; read-out: EC50) was 1.39 µM and the selectivity ratio [3] was 29.

Work on `Cc1ccc(-c2cn([C@@H]3O[C@H](CO)C[C@H]3O)c3ncnc(N)c23)cc1Cl` yielded an EC50 [1] of 17.8 µM, an EC50 (Trypanosoma cruzi [2]; read-out: EC50) of 0.27 µM and a selectivity ratio [3] of 66.

In the case of `O=C(O)Cc1ccccc1Nc1c(Cl)cccc1Cl` [DICLOFENAC], the Stability [11] is reported as “Unstable”, the Stability [12] is reported as “Unstable” and the Stability [13] is reported as “Unstable”. For the same molecule, the Stability [14] was “Unstable”, the Stability [15] was “Unstable” and the Stability [16] was “Unstable”. For the same molecule, the Stability [17] was “Unstable”, the Stability [18] was “Unstable” and the Stability [19] was “Unstable”. For the same molecule, the Stability (Cytochrome P450 [20]) was “Unstable”, the Stability [21] was “Unstable” and the Stability [22] was “Unstable”. For the same molecule, the Stability [23] was “Unstable”, the Stability [24] was “Unstable” and the Stability (Cytochrome P450 [25]) was “Unstable”. The Stability [26] was “Unstable”, the Stability [27] was “Unstable” and the Stability [28] was “Unstable”. The Stability [29] was “Unstable”, the Stability [30] was “Unstable” and the Stability [31] was “Unstable”. The Stability (Cytochrome P450 [32]) was “Unstable”, the Stability [33] was “Unstable” and the Stability [34] was “Unstable”.

Molecule `Cc1cccc(-c2cn([C@@H]3O[C@H](CO)C[C@H]3O)c3ncnc(N)c23)c1` has an EC50 [1] greater than 64 µM, an EC50 (Trypanosoma cruzi [2]; read-out: EC50) of 5.15 µM and a selectivity ratio [3] greater than 12.

For `Nc1ncnc2c1c(-c1cc(Cl)cc(Cl)c1)cn2[C@@H]1O[C@H](CO)C[C@H]1O`, the EC50 [1] was 30.2 µM, the EC50 (Trypanosoma cruzi [2]; read-out: EC50) was 0.55 µM and the selectivity ratio [3] was 55.

For `Nc1ncnc2c1c(C1=CCCCC1)cn2[C@@H]1O[C@H](CO)C[C@H]1O`, the EC50 [1] was greater than 64 µM, the EC50 (Trypanosoma cruzi [2]; read-out: EC50) was 31.8 µM and the selectivity ratio [3] was greater than 2.

In the case of `COc1ccc(-c2cn([C@@H]3O[C@H](CO)C[C@H]3O)c3ncnc(N)c23)cc1`, the EC50 [1] is reported as 24.3 µM, the EC50 (Trypanosoma cruzi [2]; read-out: EC50) is reported as 2.38 µM and the selectivity ratio [3] is reported as 10.

Molecule `Nc1ncnc2c1c(-c1ccc(F)cc1)cn2[C@@H]1O[C@H](CO)C[C@H]1O` has an EC50 [1] greater than 64 µM, an EC50 (Trypanosoma cruzi [2]; read-out: EC50) of 0.64 µM and a selectivity ratio [3] greater than 100.
